Assay results taken from patent US20220402950A1, “SUBSTITUTED BENZIMIDAZOLES AS PAD4 INHIBITORS” (BRISTOL-MYERS SQUIBB COMPANY, priority 2018, published 2022).

biological target: human PAD4 (hPAD4) (Homo sapiens, UniProt Q9UM07); test: RFMS Human PAD4 Functional Assay; type: biochemical; settings: hPAD4 RFMS IC50, human PAD4, rapid-fire mass spectrum (RFMS) assay; 5 nM hPAD4, 250 μM BAEE
In short: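 RapidFire ESI-MS quantification, normalised to a modified-citrulline internal standard, after phenyl glyoxal (final 4 mM) derivatisation of the TCA-quenched reaction. The enzyme (10 nM) sat 30 min with compound (up to 50 μM final) before 500 μM BAEE (as added) started a 90 min, 37 °C reaction. Buffer: HEPES pH 7.5, 50 μM calcium, 5 μM TPEN.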

Sequence of human PAD4 (hPAD4) (Q9UM07 whole entry): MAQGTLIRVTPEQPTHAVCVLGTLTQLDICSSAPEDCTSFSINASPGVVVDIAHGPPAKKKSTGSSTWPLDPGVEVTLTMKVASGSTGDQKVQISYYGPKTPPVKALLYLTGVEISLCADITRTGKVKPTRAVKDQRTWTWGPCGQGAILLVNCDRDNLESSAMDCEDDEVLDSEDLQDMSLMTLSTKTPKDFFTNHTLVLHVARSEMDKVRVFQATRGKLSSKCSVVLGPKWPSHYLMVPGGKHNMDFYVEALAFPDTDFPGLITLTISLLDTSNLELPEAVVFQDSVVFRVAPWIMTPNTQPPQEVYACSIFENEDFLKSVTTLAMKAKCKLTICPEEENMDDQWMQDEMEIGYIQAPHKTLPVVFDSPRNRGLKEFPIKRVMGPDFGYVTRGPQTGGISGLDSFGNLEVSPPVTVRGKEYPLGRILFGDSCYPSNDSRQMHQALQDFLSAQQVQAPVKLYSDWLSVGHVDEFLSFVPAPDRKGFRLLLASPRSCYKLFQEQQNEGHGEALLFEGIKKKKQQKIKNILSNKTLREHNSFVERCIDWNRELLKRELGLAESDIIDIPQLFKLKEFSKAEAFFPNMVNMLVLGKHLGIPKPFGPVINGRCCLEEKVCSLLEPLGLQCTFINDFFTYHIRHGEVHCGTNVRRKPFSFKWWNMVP

IC50 | Structure (SMILES)
42 nM | COc1cc(-c2cccc3cc(-c4nc5cc(C(=O)N6C[C@H]7CC[C@@H]6[C@@H]7N)cc(OC)c5n4C)n(CC4CC4)c23)ccc1O [Example 91, 4-(2-{5-[(1R,4R,7R)-7-amino-2-azabicyclo[2.2.1]heptane-2-carbonyl]-7-methoxy-1-methyl-1H-1,3-benzodiazol-2-yl}-1-(cyclopropylmethyl)-1H-indol-7-yl)-2-methoxyphenol]
171 nM | COc1cc(C(=O)N2CC3CCC2C3N)cc2nc(-c3cc4cccc(Nc5ccccc5P(C)(C)=O)c4n3CC3CC3)n(C)c12 (stereo not drawn) [Example 166, (7-amino-2-azabicyclo[2.2.1]heptan-2-yl)(2-(1-(cyclopropylmethyl)-7-((2-(dimethylphosphoryl)phe-nyl)amino)-1H-indol-2-yl)-7-methoxy-1-methyl-1H-benzo[d]imidazol-5-yl)methanone]
96 nM | COc1cc(C(=O)N2C[C@H]3CC[C@@H]2[C@@H]3N)cc2nc(-c3cc4cccc(Nc5cnn(C)c5)c4n3CC3CC3)n(C)c12 [Example 171, ((1R,4R,7R)-7-amino-2-azabicyclo[2.2.1]heptan-2-yl)(2-(1-(cyclopropylmethyl)-7-((1-methyl-1H-pyrazol-4-yl)amino)-1H-indol-2-yl)-7-methoxy-1-methyl-1H-benzo[d]imidazol-5-yl)methanone]
95 nM | COc1cc(C(=O)N2C[C@H](N)C[C@@H](F)C2)cc2nc(-c3cc4cccc(C5CC(C(=O)N6CCCC6)C5)c4n3CC3CC3)n(C)c12 (single isomer, unassigned) [Example 116]
153 nM | COc1cc(C(=O)N2CC3CCC2[C@@H]3N)cc2nc(-c3cc4cccc(Nc5ccc(CO)cc5)c4n3CC3CC3)n(C)c12 (stereo partly drawn) [Example 164, ((7R)-7-amino-2-azabicyclo[2.2.1]heptan-2-yl)(2-(1-(cyclopropylmethyl)-7-((4-(hydroxymethyl)phenyl)a-mino)-1H-indol-2-yl)-7-methoxy-1-methyl-1H-benzo[d]imidazol-5-yl)methanone]
43 nM | COc1cc(C(=O)N2C[C@H]3CC[C@@H]2[C@@H]3N)cc2nc(-c3cc4cccc(Nc5c(C)n[nH]c5C)c4n3CC3CC3)n(C)c12 [Example 172, ((1R,4R,7R)-7-amino-2-azabicyclo[2.2.1]heptan-2-yl)(2-(1-(cyclopropylmethyl)-7-((3,5-dimethyl-1H-pyrazol-4-yl)amino)-1H-indol-2-yl)-7-methoxy-1-methyl-1H-benzo[d]imidazol-5-yl)methanone]
69 nM | COc1cc(C(=O)N2C[C@H](N)C[C@@H](F)C2)cc2nc(-c3cc4cccc(-c5ccc6c(c5)CNC6=O)c4n3CC3CC3)n(C)c12 [Example 209, 5-(2-(5-((3R,5R)-3-amino-5-fluoropiperidine-1-carbonyl)-7-methoxy-1-methyl-1H-benzo[d]imidazol-2-yl)-1-(cyclopropylmethyl)-1H-indol-7-yl)isoindolin-1-one]
57 nM | COc1cc(C(=O)N2C[C@H]3CC[C@@H]2[C@@H]3N)cc2nc(-c3cc4cccc(C5CC(C(=O)N6CC(F)C6)C5)c4n3CC3CC3)n(C)c12 (single isomer, unassigned; isomer 2) [Example 201]
79 nM | COc1cc(C(=O)N2C[C@H]3CC[C@@H]2[C@@H]3N)cc2nc(-c3cc4cccc(-c5cn[nH]c5)c4n3CC3CC3C)n(C)c12 (stereo partly drawn) [Example 156, ((1R,4R,7R)-7-amino-2-azabicyclo[2.2.1]heptan-2-yl)(7-methoxy-1-methyl-2-(1-((2-methylcyclopropyl)meth-yl)-7-(1H-pyrazol-4-yl)-1H-indol-2-yl)-1H-benzo[d]imidazol-5-yl)methanone]
56 nM | COc1cc(C(=O)N2C[C@H]3CC[C@@H]2[C@@H]3N)cc2nc(-c3cc4cccc(Nc5cn(C)nc5C)c4n3CC3CC3(F)F)n(C)c12 (stereo partly drawn) [Example 178, ((1R,4R,7R)-7-amino-2-azabicyclo[2.2.1]heptan-2-yl)(2-(1-((2,2-difluorocyclopropyl)meth-yl)-7-((1,3-dimethyl-1H-pyrazol-4-yl)amino)-1H-indol-2-yl)-7-methoxy-1-methyl-1H-benzo[d]imidazol-5-yl)methanone]
10 nM | COc1cc(C(=O)N2C[C@H]3CC[C@@H]2[C@@H]3N)cc2nc(-c3cc4cccc(C5CN(C(=O)Cc6cccnc6)C5)c4n3CC3CC3)n(C)c12 [Example 78, 1-[3-(2-{5-[(1R,4R,7R)-7-amino-2-azabicyclo[2.2.1]heptane-2-carbonyl]-7-methoxy-1-methyl-1H-1,3-benzodiazol-2-yl}-1-(cyclopropylmethyl)-1H-indol-7-yl)azetidin-1-yl]-2-(pyridin-3-yl)ethan-1-one]
73 nM | COc1cc(C(=O)N2C[C@H]3CC[C@@H]2[C@@H]3N)cc2nc(-c3cc4cccc(C5CCCNC5)c4n3CC3CC3)n(C)c12 (stereo partly drawn) [Example 12, (1R,4R,7R)-2-{2-[1-(cyclopropylmethyl)-7-(piperidin-3-yl)-1H-indol-2-yl]-7-methoxy-1-methyl-1H-1,3-benzodiazole-5-carbonyl}-2-azabicyclo[2.2.1]heptan-7-amine]
26 nM | COC(=O)N1CC(c2cccc3cc(-c4nc5cc(C(=O)N6C[C@H](N)C[C@@H](F)C6)cc(OC)c5n4Cc4cnn(C)c4)n(CC4CC4)c23)C1 [Example 211, methyl 3-(2-(5-((3R,5R)-3-amino-5-fluoropiperidine-1-carbonyl)-7-methoxy-1-((1-methyl-1H-pyraozl-4-yl)methyl)-1H-benzo[d]imidazol-2-yl)-1-(cyclopropylmethyl)-1H-indol-7-yl)azetidine-1-carboxylate]
120 nM | COc1cc(C(=O)N2C[C@H]3CC[C@@H]2[C@@H]3N)cc2nc(-c3cc4cccc(CCN5CCOC5=O)c4n3CC3CC3)n(C)c12 [Example 23, 3-[2-(2-{5-[(1R,4R,7R)-7-amino-2-azabicyclo[2.2.1]heptane-2-carbonyl]-7-methoxy-1-methyl-1H-1,3-benzodiazol-2-yl}-1-(cyclopropylmethyl)-1H-indol-7-yl)ethyl]-1,3-oxazolidin-2-one]
53 nM | COc1cc(C(=O)N2C[C@H]3CC[C@@H]2[C@@H]3N)cc2nc(-c3cc4cccc(-c5ccc(O)cc5Cl)c4n3CC3CC3)n(C)c12 [Example 93, 4-(2-{5-[(1R,4R,7R)-7-amino-2-azabicyclo[2.2.1]heptane-2-carbonyl]-7-methoxy-1-methyl-1H-1,3-benzodiazol-2-yl}-1-(cyclopropylmethyl)-1H-indol-7-yl)-3-chlorophenol]
122 nM | COc1cc(C(=O)N2C[C@H]3CC[C@@H]2[C@@H]3N)cc2nc(-c3cc4cccc(C5CC(C(=O)O)C5)c4n3CC3CC3)n(C)c12 (single isomer, unassigned) [Example 55]
46 nM | COc1cc(C(=O)N2C[C@H]3CC[C@@H]2[C@@H]3N)cc2nc(-c3cc4cccc(C5CC(C(=O)N6CCC6)C5)c4n3CC3CC3)n(C)c12 (single isomer, unassigned; isomer 2) [Example 203]
42 nM | COc1cc(C(=O)N2C[C@H]3CC[C@@H]2[C@@H]3N)cc2nc(-c3cc4cccc(C5CN(C)C5)c4n3CC3CC3)n(C)c12 [Example 22, (1R,4R,7R)-2-{2-[1-(cyclopropylmethyl)-7-(1-methylazetidin-3-yl)-1H-indol-2-yl]-7-methoxy-1-methyl-1H-1,3-benzodiazole-5-carbonyl}-2-azabicyclo[2.2.1]heptan-7-amine]
138 nM | COc1cc(C(=O)N2CC3CCC2C3N)cc2nc(-c3cc4cccc(Nc5cnc(C#N)nc5)c4n3CC3CC3)n(C)c12 (stereo not drawn) [Example 167, 5-((2-(4-(7-amino-2-azabicyclo[2.2.1]heptane-2-carbonyl)-7-methoxy-1-methyl-1H-benzo[d]imidazol-2-yl)-1-(cyclopropyllmethyl)-1H-indol-7-yl)amino)pyrimidine-2-carbonitrile]
158 nM | COc1cc(C(=O)N2C[C@H]3CC[C@@H]2[C@@H]3N)cc2nc(-c3cc4cccc(C5CCC5)c4n3CC3CC3)n(C)c12 [Example 7, (1R,4R,7R)-2-{2-[7-cyclobutyl-1-(cyclopropylmethyl)-1H-indol-2-yl]-7-methoxy-1-methyl-1H-1,3-benzodiazole-5-carbonyl}-2-azabicyclo[2.2.1]heptan-7-amine]
94 nM | COc1cc(C(=O)N2C[C@H]3CC[C@@H]2[C@@H]3N)cc2nc(-c3cc4cccc(C5CCCOC5)c4n3CC3CC3)n(C)c12 (stereo partly drawn) [Example 34, (1R,4R,7R)-2-{2-[1-(cyclopropylmethyl)-7-(oxan-3-yl)-1H-indol-2-yl]-7-methoxy-1-methyl-1H-1,3-benzodiazole-5-carbonyl}-2-azabicyclo[2.2.1]heptan-7-amine]

same assay, conditions: human PAD4, rapid-fire mass spectrum (RFMS) assay; 5 nM hPAD4, 250 μM BAEE; read-out: hPAD4 RFMS IC50

IC50 | Structure (SMILES)
108 nM | COc1cc(C(=O)N2C[C@H]3CC[C@@H]2[C@@H]3N)cc2nc(-c3cc4cccc(CCCC(=O)O)c4n3CC3CC3)n(C)c12 [Example 60, 4-(2-{5-[(1R,4R,7R)-7-amino-2-azabicyclo[2.2.1]heptane-2-carbonyl]-7-methoxy-1-methyl-1H-1,3-benzodiazol-2-yl}-1-(cyclopropylmethyl)-1H-indol-7-yl)butanoic Acid]
73 nM | COc1cc(C(=O)N2C[C@H]3CC[C@@H]2[C@@H]3N)cc2nc(-c3cc4cccc(-c5cn(CCO)nn5)c4n3CC3CC3)n(C)c12 (stereo in doubt) [Example 108, 2-{4-[2-(5-{7-amino-2-azabicyclo[2.2.1]heptane-2-carbonyl}-7-methoxy-1-methyl-1H-1,3-benzodiazol-2-yl)-1-(cyclopropylmethyl)-1H-indol-7-yl]-1H-1,2,3-triazol-1-yl}ethan-1-ol]
40 nM | COc1cc(C(=O)N2C[C@H]3CC[C@@H]2[C@@H]3N)cc2nc(-c3cc4cccc(C5CCCC(C(N)=O)C5)c4n3CC3CC3)n(C)c12 (single isomer, unassigned) [Example 86]
